Results on 4 compounds are retold here after article PMC11254172 (International Journal for Parasitology: Drugs and Drug …, 2024).

In one assay the test system is Tg-β-gal tachyzoites. Description: In vitro proliferation assay with T. gondii β-gal tachyzoites in HFF monolayers. Conditions: read at 72 h post-infection. Type of assay: cell-based, Toxoplasma gondii. How it is done:
(§1) N. caninum strain NcSpain-7 and the transgenic strain N. caninum Nc1 expressing β-galactosidase (Nc-β-gal) were grown and maintained in HFF ([Aguado-Martínez et al., 2016]). T. gondii ME49 and T. gondii β-gal tachyzoites (RH background, Tg-β-gal) were cultured as previously described ([Winzer et al., 2015]). T. gondii oocysts of the type II isolate T. gondii sheep Spain 1 (TgShSp1) were generated at the Complutense University of Madrid, Spain, and were stored at 4 °C ([Sánchez-Sánchez et al., 2019]).
(§2) The effects of the compound on HFF viability were assessed by resazurin reduction assay, following the protocols of previous studies ([Anghel et al., 2020]).

The subject of assay [1] is N. caninum NcSpain-7 tachyzoites. The conditions noted are these: in vivo.
Description: A total of 57 BALB/c mice were used: 38 females and 19 males, all 8 weeks old. […] For the infection, NcSpain-7 tachyzoites were cultured in HFF at 37 °C/5% CO₂ and transferred to BALB/c fibroblasts to be grown under the same conditions for three days prior to infection. Parasites were then collected and counted, and each mouse was infected by subcutaneous injection with 10⁵ NcSpain-7 tachyzoites suspended in 100 μL PBS ([Arranz-Solís et al., 2015]). Infection took place on day 7 post-mating. Pregnant and non-pregnant mice were separated as described for the toxoplasmosis model and evaluated for clinical signs and mortality rates. Pregnant mice gave birth on days 20–23 post-mating. […]
Brains of adult mice and surviving pups were collected directly after sacrifice and parasitic load was quantified by real-time PCR specific for T. gondii ([Costa et al., 2000]) and N. caninum ([Müller et al., 2002]). […] DNA was extracted from all samples using the Nucleospin Kit (Macherey-Nagel, Oensingen, Switzerland) and QuantiFluor dsDNA System (Promega, Madison, Wi, USA) was used to determine the DNA concentration. […] Quantitative real-time PCR was performed using the Light Cycler® System (Roche, Basel, Switzerland). Parasite load was calculated by interpolation from a standard curve of DNA samples from 1000, 100 and 10 T. gondii or N. caninum tachyzoites included in each run. […]
The test system of the next assay is Nc-β-gal tachyzoites. The assay can be described thus: In vitro proliferation assay with N. caninum β-gal tachyzoites in HFF monolayers. Type of assay: cell-based, Neospora caninum. The conditions noted are these: read at 72 h post-infection. The method, then:
as §1, §2

The next assay concerns N. caninum. The conditions noted are these: 50 mg/kg/day for 6 days; ref Winzer et al., 2015; cited from earlier work.
For a further assay, the system named is T. gondii oocysts. More on the design: method as in Müller et al., 2017b. The conditions noted are these: 50 mg/kg/day for 5 days; ref Müller et al., 2017b; cited from earlier work.
A further assay deals with T. gondii. The conditions noted are these: cited from earlier work.

Read-outs that look alike come from different tables or passages of the source.

As to `CC(C)(CO)Cn1nc(-c2ccc3cc(OC4CC4)ccc3c2)c(C(N)=O)c1N` [BKI-1708], the IC50 came to 120 nM with Tg-β-gal tachyzoites (Toxoplasma gondii, 72 h, read-out: IC50 Tg-β-gal Pre-infection, compound added concomitantly to infection of HFF); 327 nM with Tg-β-gal tachyzoites (Toxoplasma gondii, read-out: IC50 Tg-β-gal Post-infection, compound added 3 h after infection of HFF); 122 nM with Tg-β-gal tachyzoites (read-out: IC50 Tg-β-gal Pre-infection, compound added concomitantly to infection of HFF); 480 nM in the assay on Nc-β-gal tachyzoites (Neospora caninum, 72 h, read-out: IC50 Nc-β-gal Pre-infection, compound added concomitantly to infection of HFF); 964 nM in the assay with Nc-β-gal tachyzoites (Neospora caninum, read-out: IC50 Nc-β-gal Post-infection, compound added 3 h after infection of HFF); 481 nM with Nc-β-gal tachyzoites (read-out: IC50 Nc-β-gal Pre-infection, compound added concomitantly to infection of HFF). Also, the “Vertical transmission rate (%)” value in assay [1] was found to be 38%.

Regarding `CCOc1ccc2cc(-c3nn(CC4CCN(C)CC4)c4ncnc(N)c34)ccc2c1` [BKI-1294], the Pup survival rate in the assay on N. caninum was 80%. In addition, in the assay with T. gondii oocysts, the “Pups with detectable T. gondii DNA in their brain (%)” value is recorded as 7% and the “Pups with detectable T. gondii DNA in their brain (number)” value is given as 4 out of 55.

`CC(C)(C)n1nc(Cc2cccc3ccccc23)c2c(N)ncnc21` [1NM-PP1]: the “Morphological effect on T. gondii” value with T. gondii (ref Sugi et al., 2016) is recorded as “Multinucleated forms”.

With `N#CC(c1ccc(Cl)cc1)c1c(Cl)cc(-n2ncc(=O)[nH]c2=O)cc1Cl` (stereo not drawn) [diclazuril], the “Morphological effect on T. gondii” value in the assay on T. gondii (ref Lindsay et al., 1995) is given as “formation of multinucleated forms”.

A word on the IC50: it is the concentration that inhibits the measured activity by half.
